Measurements: US20240390340A1 (INCYTE CORPORATION, priority 2023, published 2024)
pIC50: −log10 of the molar value. Like-named read-outs stand apart in the source and are kept apart here.

Experiments:
KRAS G12D = KRAS G12D (Homo sapiens, UniProt P01116, G12D); assay: GDP-GTP exchange assay (bodipy-GDP/GppNHp, SOS1), KRAS G12D; assay type: biochemical
KRAS G12V = KRAS G12V (Homo sapiens, UniProt P01116, G12V); assay: GDP-GTP exchange assay (bodipy-GDP/GppNHp, SOS1), KRAS G12V; assay type: biochemical
Caco-2 cells = assay: Caco2 assay (Papp A-B); assay type: in vitro ADME; conditions: test compound 50 μM, 120 min, 37° C.
Procedure: Caco-2 cells are grown at 37° C. in an atmosphere of 5% CO2 in DMEM growth medium supplemented with 10% (v/v) fetal bovine serum, 1% (v/v) nonessential amino acids, penicillin (100 U/mL), and streptomycin (100 μg/mL). Confluent cell monolayers are subcultured every 7 days or 4 days for Caco-2 by treatment with 0.05% trypsin containing […]. Caco-2 cells are seeded in 96-well Transwell plates. The seeding density for Caco-2 cells is 14,000 cells/well. DMEM growth medium is replaced every other day after seeding. Cell monolayers are used for transport assays between 22 and 25 days for Caco-2 cells.
Cell culture medium is removed and replaced with HBSS. To measure the TEER, the HBSS is added into the donor compartment (apical side) and receiver compartment (basolateral side). The TEER is measured by using a REMS Autosampler to ensure the integrity of the cell monolayers. Caco-2 cell monolayers with TEER values 300 Ω·cm^2 are used for transport experiments. To determine the Papp in the absorptive direction (A-B), solution of test compound (50 μM) in HBSS is added to the donor compartment (apical side), while HBSS solution with 4% BSA is added to the receiver compartment (basolateral side). The apical volume was 0.075 mL, and the basolateral volume is 0.25 mL. The incubation period is 120 min. at 37° C. in an atmosphere of 5% CO2. At the end of the incubation period, samples from the donor and receiver sides are removed and an equal volume of MeCN is added for protein precipitation. The supernatants are collected after centrifugation (3000 rpm, Allegra X-14R Centrifuge from Beckman Coulter, Indianapolis, IN) for LCMS analysis. The permeability value is determined according to the equation:
[formula] • where the flux rate (F, mass/time) is calculated from the slope of cumulative amounts of compound of interest on the receiver side, SA is the surface area of the cell membrane, VD is the donor volume, and MD is the initial amount of the solution in the donor chamber.
The symbol “+” indicates a Caco-2 value of ≤0.5, “++” indicates a Caco-2 value of >0.5 but ≤1; and “+++” indicates a Caco-2 value of >1. “NA” indicates IC50 not available.

[1] = Table H, column G12D, for compounds isolated as several atropisomers/diastereoisomers the value for the most potent isomer is quoted, read-out: KRAS G12D exchange assay IC50
[2] = Table H, column G12V, for compounds isolated as several atropisomers/diastereoisomers the value for the most potent isomer is quoted, read-out: KRAS G12V exchange assay IC50

Chain of KRAS G12D (P01116 1-188 isoform P01116-2 G12D): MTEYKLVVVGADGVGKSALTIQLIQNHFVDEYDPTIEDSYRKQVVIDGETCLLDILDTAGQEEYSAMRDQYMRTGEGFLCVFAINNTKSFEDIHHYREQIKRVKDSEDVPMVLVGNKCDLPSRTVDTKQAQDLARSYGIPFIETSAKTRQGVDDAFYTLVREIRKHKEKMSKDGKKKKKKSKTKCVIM
Chain of KRAS G12V (P01116 1-188 isoform P01116-2 G12V): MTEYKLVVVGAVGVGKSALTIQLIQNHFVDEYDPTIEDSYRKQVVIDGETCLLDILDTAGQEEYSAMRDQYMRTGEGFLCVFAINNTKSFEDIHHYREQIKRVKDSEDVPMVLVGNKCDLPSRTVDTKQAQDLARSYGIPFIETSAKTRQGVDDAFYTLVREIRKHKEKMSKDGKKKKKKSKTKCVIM

pIC50 (KRAS G12D; [1])	pIC50 (KRAS G12V; [2])	Caco-2 (Caco-2 cells)	pIC50 (KRAS G12D; bodipy-loaded KRAS G12D 2.5 nM, 4 h pre-incubation, value for the most potent isomer quoted for certain compounds, read-out: G12D (KRAS G12D exchange assay IC50))	pIC50 (KRAS G12V; KRAS G12V mutant, value for the most potent isomer quoted for certain compounds, read-out: G12V (KRAS G12V exchange assay IC50))	Compound
≥ 7.00	≥ 7.00	+ (a Caco-2 value of ≤0.5)			CCc1c(-c2ccccc2)nnn1[C@H]1C[C@H](c2cc3c(C)nc4c(F)c(-c5cccc(Cl)c5Cl)c(CCC#N)cc4c3n2[C@H]2[C@H]3CN[C@@H]2C3)N(C(=O)C2CC2)C1 [Example 70, 3-(1-((1R,4R,5S)-2-Azabicyclo[2.1.1]hexan-5-yl)-2-((2R,4S)-1-(cyclopropanecarbonyl)-4-(5-ethyl-4-phenyl-1H-1,2,3-triazol-1-yl)pyrrolidin-2-yl)-7-(2,3-dichlorophenyl)-6-fluoro-4-methyl-1H-pyrrolo[3,2-c]quinolin-8-yl)propanenitrile]
≥ 7.00	≥ 7.00	+ (a Caco-2 value of ≤0.5)			Cc1ccccc1CO[C@H]1C[C@H](c2cc3c(C)nc4c(F)c(-c5cccc(Cl)c5Cl)c(CCC#N)cc4c3n2[C@H]2[C@H]3CN[C@@H]2C3)N(C(=O)C2CC2)C1 [Example 21]
≥ 7.00	≥ 7.00	++ (a Caco-2 value of >0.5 but ≤1)			CC(O)c1nc2c(F)c(-c3cccc(Cl)c3Cl)c(CCC#N)cc2c2c1cc([C@H]1C[C@H](OCc3ccc(F)cc3C#N)CN1C(=O)C1(C)CC1)n2[C@H]1[C@H]2CN[C@@H]1C2 (stereo partly drawn) [Example 35, 2-((((3S,5R)-5-(1-((1R,4R,5S)-2-Azabicyclo[2.1.1]hexan-5-yl)-8-(2-cyanoethyl)-7-(2,3-dichlorophenyl)-6-fluoro-4-(1-hydroxyethyl)-1H-pyrrolo[3,2-c]quinolin-2-yl)-1-(1-methylcyclopropane-1-carbonyl)pyrrolidin-3-yl)oxy)methyl)-5-fluorobenzonitrile]
≥ 7.00	≥ 7.00	+++ (a Caco-2 value of >1)			Cc1nc2c(F)c(-c3cccc(Cl)c3Cl)c(CCC#N)cc2c2c1cc([C@H]1C[C@H](Oc3cnn(C(F)F)c3)CN1C(=O)C1CC1)n2[C@H]1[C@H]2CN[C@@H]1C2 [Example 48, 3-(1-((1R,4R,5S)-2-Azabicyclo[2.1.1]hexan-5-yl)-2-((2R,4S)-1-(cyclopropanecarbonyl)-4-((1-(difluoromethyl)-1H-pyrazol-4-yl)oxy)pyrrolidin-2-yl)-7-(2,3-dichlorophenyl)-6-fluoro-4-methyl-1H-pyrrolo[3,2-c]quinolin-8-yl)propanenitrile]
≥ 7.00	≥ 7.00	++ (a Caco-2 value of >0.5 but ≤1)			Cc1nc2c(F)c(-c3cccc(Cl)c3Cl)c(CCC#N)cc2c2c1cc([C@H]1C[C@H](n3cc(F)cn3)CN1C(=O)C1CC1)n2[C@H]1[C@H]2CN[C@@H]1C2 [Example 72, 3-(1-((1R,4R,5S)-2-Azabicyclo[2.1.1]hexan-5-yl)-2-((2R,4S)-1-(cyclopropanecarbonyl)-4-(4-fluoro-1H-pyrazol-1-yl)pyrrolidin-2-yl)-7-(2,3-dichlorophenyl)-6-fluoro-4-methyl-1H-pyrrolo[3,2-c]quinolin-8-yl)propanenitrile]
≥ 7.00	≥ 7.00	+ (a Caco-2 value of ≤0.5)			Cc1nc2c(F)c(-c3cccc(Cl)c3Cl)c(CCC#N)cc2c2c1cc([C@H]1C[C@H](Oc3ccnc(OC(F)F)c3)CN1C(=O)C1CC1)n2[C@H]1[C@H]2CN[C@@H]1C2 [Example 40, 3-(1-((1R,4R,5S)-2-Azabicyclo[2.1.1]hexan-5-yl)-2-((2R,4S)-1-(cyclopropanecarbonyl)-4-((2-(difluoromethoxy)pyridin-4-yl)oxy)pyrrolidin-2-yl)-7-(2,3-dichlorophenyl)-6-fluoro-4-methyl-1H-pyrrolo[3,2-c]quinolin-8-yl)propanenitrile]
		+++ (a Caco-2 value of >1)	≥ 7.00	≥ 7.00	Cc1nc2c(F)c(-c3cccc(Cl)c3Cl)c(CCC#N)cc2c2c1cc([C@H]1C[C@](C)(OCc3ccccc3)CN1C(=O)C1CC1)n2[C@H]1[C@H]2CN[C@@H]1C2 [Example 81, 3-(2-((2R,4S)-4-(Benzyloxy)-1-(cyclopropanecarbonyl)-4-methylpyrrolidin-2-yl)-1-((1R,4R,5S)-2-azabicyclo[2.1.1]hexan-5-yl)-7-(2,3-dichlorophenyl)-6-fluoro-4-methyl-1H-pyrrolo[3,2-c]quinolin-8-yl)propanenitrile]
≥ 7.00	≥ 7.00	+ (a Caco-2 value of ≤0.5)			COc1nccc(O[C@H]2C[C@H](c3cc4c(C)nc5c(F)c(-c6cccc(Cl)c6Cl)c(CCC#N)cc5c4n3[C@H]3[C@H]4CN[C@@H]3C4)N(C(=O)C3CC3)C2)n1 [Example 42, 3-(1-((1R,4R,5S)-2-Azabicyclo[2.1.1]hexan-5-yl)-2-((2R,4S)-1-(cyclopropanecarbonyl)-4-((2-methoxypyrimidin-4-yl)oxy)pyrrolidin-2-yl)-7-(2,3-dichlorophenyl)-6-fluoro-4-methyl-1H-pyrrolo[3,2-c]quinolin-8-yl)propanenitrile]
≥ 7.00	≥ 7.00	+ (a Caco-2 value of ≤0.5)			Cc1nc2c(F)c(-c3cccc(Cl)c3Cl)c(CCC#N)cc2c2c1cc([C@H]1C[C@H](Oc3ccc(C#N)cn3)CN1C(=O)C1CC1)n2[C@H]1[C@H]2CN[C@@H]1C2 [Example 60, 6-(((3S,5R)-5-(1-((1R,4R,5S)-2-Azabicyclo[2.1.1]hexan-5-yl)-8-(2-cyanoethyl)-7-(2,3-dichlorophenyl)-6-fluoro-4-methyl-1H-pyrrolo[3,2-c]quinolin-2-yl)-1-(cyclopropanecarbonyl)pyrrolidin-3-yl)oxy)nicotinonitrile]
≥ 7.00	≥ 7.00	+ (a Caco-2 value of ≤0.5)			Cc1nc2c(F)c(-c3cccc(Cl)c3Cl)c(CCC#N)cc2c2c1cc([C@H]1C[C@H](Oc3cnn(C)c3C#N)CN1C(=O)C1CC1)n2[C@H]1[C@H]2CN[C@@H]1C2 [Example 46, 4-(((3S,5R)-5-(1-((1R,4R,5S)-2-Azabicyclo[2.1.1]hexan-5-yl)-8-(2-cyanoethyl)-7-(2,3-dichlorophenyl)-6-fluoro-4-methyl-1H-pyrrolo[3,2-c]quinolin-2-yl)-1-(cyclopropanecarbonyl)pyrrolidin-3-yl)oxy)-1-methyl-1H-pyrazole-5-carbonitrile]
≥ 7.00	≥ 7.00	+ (a Caco-2 value of ≤0.5)			CC(O)c1nc2c(F)c(-c3cccc(Cl)c3Cl)c(CCC#N)cc2c2c1cc([C@H]1C[C@H](OCc3c(F)cccc3F)CN1C(=O)C1CC1)n2[C@H]1[C@H]2CN[C@@H]1C2 (stereo partly drawn) [Example 34]
≥ 7.00	≥ 7.00	++ (a Caco-2 value of >0.5 but ≤1)			COc1ccc(O[C@H]2C[C@H](c3cc4c([C@@H](C)O)nc5c(F)c(-c6cccc(Cl)c6Cl)c(CCC#N)cc5c4n3[C@H]3[C@H]4CN[C@@H]3C4)N(C(=O)C3CC3)C2)cn1 [Example 76, 3-(1-((1R,4R,5S)-2-Azabicyclo[2.1.1]hexan-5-yl)-2-((2R,4S)-1-(cyclopropanecarbonyl)-4-((6-methoxypyridin-3-yl)oxy)pyrrolidin-2-yl)-7-(2,3-dichlorophenyl)-6-fluoro-4-((R)-1-hydroxyethyl)-1H-pyrrolo[3,2-c]quinolin-8-yl)propanenitrile]

Compound	pIC50 (KRAS G12D; [1])	pIC50 (KRAS G12V; [2])	Caco-2 (Caco-2 cells)	pIC50 (KRAS G12D; bodipy-loaded KRAS G12D 2.5 nM, 4 h pre-incubation, value for the most potent isomer quoted for certain compounds, read-out: G12D (KRAS G12D exchange assay IC50))	pIC50 (KRAS G12V; KRAS G12V mutant, value for the most potent isomer quoted for certain compounds, read-out: G12V (KRAS G12V exchange assay IC50))
[2H]C([2H])([2H])O[C@H]1CC[C@@H]1O[C@H]1C[C@H](c2cc3c(C)nc4c(F)c(-c5cccc(Cl)c5Cl)c(CCC#N)cc4c3n2[C@H]2[C@H]3CN[C@@H]2C3)N(C(=O)C2CC2)C1 (stereo in doubt) [Example 80, trans-3-(1-((1R,4R,5S)-2-Azabicyclo[2.1.1]hexan-5-yl)-2-((2R,4S)-1-(cyclopropanecarbonyl)-4-(2-(methoxy-d3)cyclobutoxy)pyrrolidin-2-yl)-7-(2,3-dichlorophenyl)-6-fluoro-4-methyl-1H-pyrrolo[3,2-c]quinolin-8-yl)propanenitrile]	≥ 7.00	≥ 7.00	++ (a Caco-2 value of >0.5 but ≤1)		
Cc1nc2c(F)c(-c3cccc(Cl)c3Cl)c(CCC#N)cc2c2c1cc([C@H]1C[C@H](OC3(C)CCC3)CN1C(=O)C1CC1)n2[C@H]1[C@H]2CN[C@@H]1C2 [Example 78, 3-(1-((1R,4R,5S)-2-Azabicyclo[2.1.1]hexan-5-yl)-2-((2R,4S)-1-(cyclopropanecarbonyl)-4-(1-methylcyclobutoxy)pyrrolidin-2-yl)-7-(2,3-dichlorophenyl)-6-fluoro-4-methyl-1H-pyrrolo[3,2-c]quinolin-8-yl)propanenitrile]	≥ 7.00	≥ 7.00	+++ (a Caco-2 value of >1)		
